From the supplement of paper PMC8960247
Where a name gives a salt, the structure may show the parent alone. ± gives the standard error.

How the values were obtained:
621-102 (TSC2-deficient) = assay: relative viability vs DMSO; higher = less cytotoxic; conditions: serum: 10% FBS, 72 h
621-103 (TSC2-rescued) = assay: as above; conditions: serum: 10% FBS, 72 h
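Note: immortalized renal angiomyolipoma cells stably carrying empty vector or TSC2, dosed in 384-well plates in DMEM, viability normalized to vehicle-treated wells within each plate.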

SMILES | relative viability (621-102 (TSC2-deficient); 0.0001 µM) [%] | relative viability (621-102 (TSC2-deficient); 0.001 µM) [%] | relative viability (621-102 (TSC2-deficient); 0.01 µM) [%] | relative viability (621-102 (TSC2-deficient); 0.1 µM) [%] | relative viability (621-102 (TSC2-deficient); 1 µM) [%] | relative viability (621-102 (TSC2-deficient); 10 µM) [%] | relative viability (621-103 (TSC2-rescued); 0.0001 µM) [%] | relative viability (621-103 (TSC2-rescued); 0.001 µM) [%] | relative viability (621-103 (TSC2-rescued); 0.01 µM) [%] | relative viability (621-103 (TSC2-rescued); 0.1 µM) [%] | relative viability (621-103 (TSC2-rescued); 1 µM) [%] | relative viability (621-103 (TSC2-rescued); 10 µM) [%]
CC1(C)C(=O)N(CCN2CCC(C(=O)c3ccc(F)cc3)CC2)c2ccccc21 | 102.5 ± 0.86 | 103 ± 1.4 | 97.2 ± 4.5 | 97.5 ± 1.1 | 97 ± 1.2 | 97.4 ± 5.7 | 101 ± 2.5 | 97.9 ± 4.5 | 96.93 ± 0.26 | 101 ± 4.7 | 96.7 ± 2 | 94.8 ± 1.9
CS(=O)(=O)N1CCN(Cc2cc3nc(-c4cccc5[nH]ncc45)nc(N4CCOCC4)c3s2)CC1 [GDC-0941] | 106 ± 1.4 | 114 ± 2.3 | 114.7 ± 0.27 | 111 ± 2.6 | 97 ± 1.1 | 53.69 ± 0.36 | 98.45 ± 0.81 | 100 ± 2.2 | 98.08 ± 0.38 | 97.2 ± 2.3 | 83.3 ± 0.97 | 37.9 ± 0.47
C=CC(=O)N1CCC[C@@H](n2nc(-c3ccc(Oc4ccccc4)cc3)c3c(N)ncnc32)C1 | 108 ± 3.1 | 99.6 ± 2.7 | 102 ± 1.1 | 108 ± 4.7 | 112.7 ± 0.33 | 110 ± 4.6 | 99.6 ± 3.6 | 97.1 ± 1.7 | 98.8 ± 1.5 | 103 ± 3 | 108.4 ± 0.78 | 105 ± 3.9
Nc1cc(C(Cl)=C(Cl)Cl)c(S(N)(=O)=O)cc1S(N)(=O)=O [Clorsulon] | 109 ± 2.7 | 111.6 ± 0.7 | 107 ± 1.5 | 101 ± 2.9 | 98.4 ± 1.1 | 106 ± 1.2 | 81.5 ± 3.3 | 86.2 ± 4 | 73.8 ± 6.7 | 88.2 ± 12 | 91.8 ± 5.8 | 79.6 ± 10
CC(C)(Cc1ccc2ccccc2c1)NC[C@@H](O)COc1cccc(Cl)c1C#N [NPS-2143] | 83.2 ± 5.7 | 93.6 ± 6.1 | 100 ± 2.8 | 97.6 ± 1.3 | 79.52 ± 0.42 | 1 ± 0.14 | 111 ± 4.1 | 102 ± 2.2 | 107 ± 1.8 | 114 ± 2.6 | 106.7 ± 0.6 | 1.29 ± 0.19
COc1ccc(S(=O)(=O)Nc2cccnc2Nc2ccc(O)cc2)cc1 [ABT-751] | 112 ± 3.7 | 114 ± 3.9 | 111 ± 1.8 | 110 ± 5.1 | 44.8 ± 1.6 | 49.55 ± 0.36 | 108 ± 3.8 | 108 ± 2.6 | 105 ± 3.2 | 98 ± 1.5 | 44.2 ± 2.2 | 44.8 ± 0.75
CC(C)Cc1ccc(C(C)C(=O)O)cc1 (stereo not given) [Ibuprofen] | 102.6 ± 0.15 | 109 ± 5.4 | 114 ± 1.2 | 112.4 ± 0.85 | 106 ± 1.3 | 104 ± 3.3 | 105.8 ± 0.48 | 99.2 ± 0.35 | 101 ± 0.81 | 99.61 ± 0.82 | 98.25 ± 0.82 | 98.82 ± 0.41
C/C(=C\c1csc(C)n1)[C@@H]1C[C@@H]2O[C@]2(C)CCC[C@H](C)[C@H](O)[C@@H](C)C(=O)C(C)(C)[C@@H](O)CC(=O)O1 [Epothilone B (EPIO906)] | 29.4 ± 1.8 | 29.3 ± 0.11 | 27.3 ± 1.2 | 32.2 ± 1.6 | 35.2 ± 2.2 | 37.6 ± 1.2 | 56.73 ± 0.32 | 48.3 ± 0.41 | 38.2 ± 1 | 35.28 ± 0.27 | 48.9 ± 1.2 | 60.1 ± 1.1
CC1(C)CNc2cc(NC(=O)c3cccnc3NCc3ccncc3)ccc21 [Motesanib DiPhosphate] | 104 ± 1.8 | 119 ± 1.9 | 115.2 ± 1.1 | 110 ± 3 | 104 ± 2.7 | 107 ± 2 | 94.7 ± 3.1 | 102.6 ± 0.75 | 102.5 ± 0.75 | 102 ± 1.3 | 93 ± 1.9 | 98 ± 1.7
O=C(NOC[C@H](O)CO)c1ccc(F)c(F)c1Nc1ccc(I)cc1F | 98.6 ± 2.5 | 104 ± 4.5 | 106.7 ± 0.59 | 106.2 ± 0.49 | 98.6 ± 1 | 52.32 ± 0.36 | 96.2 ± 1.3 | 98.8 ± 2.7 | 100.2 ± 0.66 | 94.5 ± 0.99 | 87.31 ± 0.23 | 64.6 ± 1.8
Cc1cccc(-c2[nH]c(C(C)(C)C)nc2-c2ccc3nccnc3c2)n1 | 115.4 ± 0.35 | 111 ± 2.5 | 101.9 ± 0.66 | 108.6 ± 0.23 | 105 ± 2.2 | 38.9 ± 2.9 | 98.4 ± 1.4 | 99.6 ± 2.7 | 97.58 ± 0.26 | 95.9 ± 2.7 | 97.18 ± 0.62 | 83.8 ± 1.5
CCCS(=O)(=O)Nc1ccc(F)c(C(=O)c2c[nH]c3ncc(Cl)cc23)c1F [PLX-4720] | 108 ± 2.7 | 111 ± 4.3 | 107 ± 4.4 | 99.7 ± 4.8 | 101 ± 3.2 | 101 ± 1.9 | 102 ± 2.3 | 100.7 ± 0.75 | 99.2 ± 1.6 | 99.5 ± 1.8 | 99.18 ± 0.44 | 103.4 ± 0.45
Fc1cc(-c2cccc3ncc(-c4cnn(C5CCNCC5)c4)nc23)cc(F)c1CN1CCOCC1 [NVP-BSK805 dihydrochloride] | 102 ± 3.5 | 99.9 ± 4 | 101 ± 2.5 | 103 ± 1.4 | 89.2 ± 9.6 | 4.33 ± 1.8 | 88.7 ± 5.9 | 102 ± 1.9 | 111 ± 4.3 | 104 ± 4.5 | 77.1 ± 0.88 | 4.07 ± 1.5
CNC(=C[N+](=O)[O-])NCCSCc1csc(CN(C)C)n1 [Nizatidine] | 102 ± 3 | 100.7 ± 0.45 | 101 ± 2.1 | 95.8 ± 1.8 | 106 ± 3.8 | 103 ± 1.6 | 102.5 ± 0.9 | 92.2 ± 3.2 | 101 ± 4.2 | 97.2 ± 1.6 | 102 ± 3.1 | 98.5 ± 4.4
CC[C@H](c1ccc(O)cc1)[C@@H](CC)c1ccc(O)cc1 [Hexestrol (Bibenzyl)] | 105 ± 2.8 | 121 ± 3.7 | 108 ± 5.3 | 100 ± 6.5 | 113 ± 2.7 | 99.9 ± 5.4 | 89.4 ± 5.1 | 89.3 ± 4 | 90.4 ± 1 | 90 ± 2.3 | 95 ± 2.3 | 95.35 ± 0.45
CC(C)CC(=O)Nc1n[nH]c2c1CN(C(=O)C1CCN(C)CC1)C2(C)C | 105.5 ± 0.63 | 109 ± 4 | 103 ± 2.3 | 93.5 ± 0.62 | 79 ± 1.2 | 13.5 ± 0.25 | 100.3 ± 0.33 | 101 ± 2 | 102 ± 1.2 | 102 ± 1.3 | 94.4 ± 1.7 | 22.5 ± 1.5
Oc1cccc(-c2nc(N3CCOCC3)c3oc4ncccc4c3n2)c1 [PI-103] | 105 ± 1.1 | 92.1 ± 7.2 | 95.5 ± 3.6 | 103 ± 1.9 | 91.8 ± 3.4 | 37.66 ± 0.19 | 112 ± 1.2 | 95.6 ± 3.2 | 101.2 ± 0.72 | 102.5 ± 0.82 | 83.4 ± 2.7 | 38 ± 0.63
CC(=O)O[C@H]1C[C@@H]2CC[C@@H]3[C@H](CC[C@@]4(C)[C@H]3C[C@H]([N+]3(C)CCCCC3)[C@@H]4OC(C)=O)[C@@]2(C)C[C@@H]1[N+]1(C)CCCCC1 [Pancuronium bromide] | 83.8 ± 6.4 | 95.36 ± 0.26 | 93.6 ± 3.5 | 91.4 ± 3.3 | 84.1 ± 1.2 | 52.5 ± 0.78 | 97.7 ± 0.99 | 104 ± 1.3 | 101 ± 2.5 | 95 ± 3.6 | 93.8 ± 4.2 | 51.35 ± 0.38
Cc1ccc(-n2nc(C(C)(C)C)cc2NC(=O)Nc2ccc(OCCN3CCOCC3)c3ccccc23)cc1 [BIRB 796] | 104 ± 3.1 | 107 ± 3.4 | 98.8 ± 4.4 | 103.8 ± 0.27 | 103 ± 4.7 | 104 ± 1.4 | 98 ± 1.9 | 98.8 ± 1.3 | 97.2 ± 1 | 98.7 ± 1.7 | 94.18 ± 0.14 | 95.5 ± 1.8
NC1=N[C@@]2(c3cc(NC(=O)c4ccc(F)cn4)ccc3F)COC[C@H]2CS1 | 105 ± 1.8 | 105 ± 1.3 | 105 ± 0.55 | 100 ± 1.3 | 99.9 ± 2 | 96.4 ± 1.9 | 101 ± 4.3 | 101 ± 3.9 | 100 ± 1.9 | 101 ± 2 | 99.2 ± 2.8 | 93.7 ± 1.1
